Measured values reported in ChEMBL document CHEMBL1201862, “PubChem BioAssay data set” (2004).
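Tested at 5 concentrations; 48 h exposure; 96-well plates; endpoints linearly interpolated, else capped at highest concentration. The concentration for 50% growth inhibition is given as GI50.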 Activity calls are given as the source filed them. Cut-off read from the data, not from the text of the source: active = GI50 up to about 1.1 µM and inactive = higher.

Key:
Test in all cases: NCI tumour cell line growth inhibition, 48 h
786-0 = system: 786-0
A498 = system: A498
A549 = system: A549
ACHN = system: ACHN
BT-549 = system: BT-549
CAKI-1 = system: CAKI-1
CCRF-CEM = system: CCRF-CEM
COLO 205 = system: COLO 205
DU-145 = system: DU-145
EKVX = system: EKVX
HCC 2998 = system: HCC 2998
HCT-116 = system: HCT-116
HCT-15 = system: HCT-15
HL-60 = system: HL-60
HOP-62 = system: HOP-62
HOP-92 = system: HOP-92
HT-29 = system: HT-29
Hs-578T = system: Hs-578T
IGROV-1 = system: IGROV-1
K562 = system: K562
KM12 = system: KM12
LOX IMVI = system: LOX IMVI
M14 = system: M14
MCF7 = system: MCF7
MDA-MB-231 = system: MDA-MB-231
MDA-MB-435 = system: MDA-MB-435
MDA-N = system: MDA-N
MOLT-4 = system: MOLT-4
Malme-3M = system: Malme-3M
NCI-H226 = system: NCI-H226
NCI-H23 = system: NCI-H23
NCI-H460 = system: NCI-H460
NCI-H522 = system: NCI-H522
NCI/ADR-RES = system: NCI/ADR-RES
OVCAR-3 = system: OVCAR-3
OVCAR-4 = system: OVCAR-4
OVCAR-5 = system: OVCAR-5
OVCAR-8 = system: OVCAR-8
PC-3 = system: PC-3
RPMI-8226 = system: RPMI-8226
RXF 393 = system: RXF 393
SF-268 = system: SF-268
SF-295 = system: SF-295
SF-539 = system: SF-539
SK-MEL-28 = system: SK-MEL-28
SK-MEL-2 = system: SK-MEL-2
SK-MEL-5 = system: SK-MEL-5
SK-OV-3 = system: SK-OV-3
SN12C = system: SN12C
SNB-19 = system: SNB-19
SNB-75 = system: SNB-75
SR = system: SR
SW-620 = system: SW-620
T47D = system: T47D
TK-10 = system: TK-10
U-251 = system: U-251
UACC-257 = system: UACC-257
UACC-62 = system: UACC-62
UO-31 = system: UO-31

For `CN(CCNC(=O)c1cn(C)c2c1ccc1cc(Cl)c(Cl)cc12)CCNC(=O)c1cn(C)c2c1ccc1cc(Cl)c(Cl)cc12`, the GI50 (786-0) was 1650 nM (inactive), the GI50 (A498) was 3820 nM (inactive) and the GI50 (A549) was 1820 nM (inactive). The GI50 (ACHN) was 1920 nM (inactive), the GI50 (BT-549) was 19700 nM (inactive) and the GI50 (CAKI-1) was 3840 nM (inactive). For the same compound, the GI50 (CCRF-CEM) was 1610 nM (inactive), the GI50 (COLO 205) was 1640 nM (inactive) and the GI50 (DU-145) was 1820 nM (inactive). For the same compound, the GI50 (EKVX) was 2700 nM (inactive), the GI50 (HCC 2998) was 1690 nM (inactive) and the GI50 (HCT-116) was 1940 nM (inactive). The GI50 (HCT-15) was 1740 nM, the GI50 (HL-60) was 1320 nM (inactive) and the GI50 (HOP-62) was 1790 nM (inactive). For the same compound, the GI50 (HOP-92) was 2170 nM (inactive), the GI50 (HT-29) was 1750 nM (inactive) and the GI50 (Hs-578T) was 2170 nM (inactive). The GI50 (IGROV-1) was 1530 nM (inactive), the GI50 (K562) was 535 nM (active) and the GI50 (KM12) was 1750 nM (inactive). For the same compound, the GI50 (LOX IMVI) was 1740 nM (inactive), the GI50 (M14) was 1750 nM (inactive) and the GI50 (MCF7) was 1960 nM (inactive). For the same compound, the GI50 (MDA-MB-231) was 1750 nM (inactive), the GI50 (MDA-MB-435) was 1770 nM (inactive) and the GI50 (MDA-N) was 2290 nM (inactive). For the same compound, the GI50 (MOLT-4) was 500 nM (active), the GI50 (Malme-3M) was 7830 nM (inactive) and the GI50 (NCI-H226) was 24700 nM (inactive). For the same compound, the GI50 (NCI-H23) was 5220 nM (inactive), the GI50 (NCI-H460) was 1900 nM (inactive) and the GI50 (NCI-H522) was 1970 nM (inactive). For the same compound, the GI50 (NCI/ADR-RES) was 2260 nM (inactive), the GI50 (OVCAR-3) was 2180 nM (inactive) and the GI50 (OVCAR-4) was 2500 nM (inactive). The GI50 (OVCAR-5) was 2790 nM (inactive), the GI50 (OVCAR-8) was 1790 nM (inactive) and the GI50 (PC-3) was 1700 nM (inactive). For the same compound, the GI50 (RPMI-8226) was 2650 nM (inactive), the GI50 (RXF 393) was 1420 nM (inactive) and the GI50 (SF-268) was 2750 nM (inactive). The GI50 (SF-295) was 2220 nM (inactive), the GI50 (SF-539) was 2610 nM (inactive) and the GI50 (SK-MEL-28) was 1730 nM (inactive). The GI50 (SK-MEL-2) was 1840 nM (inactive), the GI50 (SK-MEL-5) was 12500 nM (inactive) and the GI50 (SK-OV-3) was 2030 nM (inactive). The GI50 (SN12C) was 1740 nM (inactive), the GI50 (SNB-19) was 2080 nM (inactive) and the GI50 (SNB-75) was 1580 nM (inactive). The GI50 (SR) was 560 nM (active), the GI50 (SW-620) was 1800 nM (inactive) and the GI50 (T47D) was 1930 nM (inactive). For the same compound, the GI50 (TK-10) was 3710 nM (inactive), the GI50 (U-251) was 1770 nM (inactive) and the GI50 (UACC-257) was 2410 nM (inactive). The GI50 (UACC-62) was 1950 nM (inactive) and the GI50 (UO-31) was 1720 nM (inactive).
For `CC(C)C(Cl)CC/C(CBr)=C(\Cl)CCl` (configuration not stated), the GI50 (786-0) was 2220 nM (inactive), the GI50 (A498) was 19200 nM (inactive) and the GI50 (A549) was 17800 nM (inactive). For the same compound, the GI50 (ACHN) was 16000 nM (inactive), the GI50 (BT-549) was 2050 nM (inactive) and the GI50 (CAKI-1) was 7080 nM (inactive). For the same compound, the GI50 (CCRF-CEM) was 225 nM (active), the GI50 (COLO 205) was 5460 nM (inactive) and the GI50 (DU-145) was 13400 nM (inactive). The GI50 (EKVX) was 19600 nM (inactive), the GI50 (HCC 2998) was 13700 nM (inactive) and the GI50 (HCT-116) was 2860 nM (inactive). For the same compound, the GI50 (HCT-15) was 2890 nM, the GI50 (HL-60) was 540 nM (active) and the GI50 (HOP-62) was 17100 nM (inactive). For the same compound, the GI50 (HOP-92) was 2250 nM (inactive), the GI50 (HT-29) was 4750 nM (inactive) and the GI50 (Hs-578T) was 2900 nM (inactive). The GI50 (IGROV-1) was 1770 nM (inactive), the GI50 (K562) was 723 nM (active) and the GI50 (KM12) was 3210 nM (inactive). For the same compound, the GI50 (LOX IMVI) was 240 nM (active), the GI50 (M14) was 1850 nM (inactive) and the GI50 (MCF7) was 646 nM (active). The GI50 (MDA-MB-231) was 3300 nM (inactive), the GI50 (MDA-MB-435) was 3200 nM (inactive) and the GI50 (MDA-N) was 2050 nM (inactive). The GI50 (MOLT-4) was 1730 nM (inactive), the GI50 (Malme-3M) was 6710 nM (inactive) and the GI50 (NCI-H226) was 6700 nM (inactive). The GI50 (NCI-H23) was 2670 nM (inactive), the GI50 (NCI-H460) was 13400 nM (inactive) and the GI50 (NCI-H522) was 794 nM (active). The GI50 (NCI/ADR-RES) was 10900 nM (inactive), the GI50 (OVCAR-3) was 4720 nM (inactive) and the GI50 (OVCAR-4) was 2270 nM (inactive). The GI50 (OVCAR-5) was 15400 nM (inactive), the GI50 (OVCAR-8) was 2000 nM (inactive) and the GI50 (PC-3) was 10700 nM (inactive). The GI50 (RPMI-8226) was 2270 nM (inactive), the GI50 (RXF 393) was 2800 nM (inactive) and the GI50 (SF-268) was 7180 nM (inactive). The GI50 (SF-295) was 16300 nM (inactive), the GI50 (SF-539) was 15700 nM (inactive) and the GI50 (SK-MEL-28) was 3370 nM (inactive). The GI50 (SK-MEL-2) was 2100 nM (inactive), the GI50 (SK-MEL-5) was 2020 nM (inactive) and the GI50 (SK-OV-3) was 6100 nM (inactive). The GI50 (SN12C) was 4730 nM (inactive), the GI50 (SNB-19) was 14600 nM (inactive) and the GI50 (SNB-75) was 2010 nM (inactive). The GI50 (SR) was 1690 nM (inactive), the GI50 (SW-620) was 1800 nM (inactive) and the GI50 (T47D) was 1500 nM (inactive). The GI50 (TK-10) was 14500 nM (inactive), the GI50 (U-251) was 10600 nM (inactive) and the GI50 (UACC-257) was 2790 nM (inactive). The GI50 (UACC-62) was 2240 nM (inactive) and the GI50 (UO-31) was 16900 nM (inactive).
`CC(O)c1cc2c(s1)C(=O)c1sccc1C2=O` (configuration not stated) was tested, and the GI50 (786-0) was 303 nM (active), the GI50 (A498) was 290 nM (active) and the GI50 (A549) was 155 nM (active). For the same compound, the GI50 (ACHN) was 150 nM (active), the GI50 (BT-549) was 64.6 nM (active) and the GI50 (CAKI-1) was 552 nM (active). For the same compound, the GI50 (CCRF-CEM) was 334 nM (active), the GI50 (COLO 205) was 574 nM (active) and the GI50 (DU-145) was 20.2 nM (active). The GI50 (EKVX) was 254 nM (active), the GI50 (HCC 2998) was 202 nM (active) and the GI50 (HCT-116) was 151 nM (active). For the same compound, the GI50 (HCT-15) was 45.4 nM, the GI50 (HL-60) was 85.9 nM (active) and the GI50 (HOP-62) was 163 nM (active). The GI50 (HOP-92) was 386 nM (active), the GI50 (HT-29) was 238 nM (active) and the GI50 (Hs-578T) was 63.8 nM (active). For the same compound, the GI50 (IGROV-1) was 248 nM (active), the GI50 (K562) was 353 nM (active) and the GI50 (KM12) was 234 nM (active). For the same compound, the GI50 (LOX IMVI) was 24.7 nM (active), the GI50 (M14) was 18.5 nM (active) and the GI50 (MCF7) was 152 nM (active). The GI50 (MDA-MB-231) was 172 nM (active), the GI50 (MDA-MB-435) was 20.3 nM (active) and the GI50 (MDA-N) was 19.8 nM (active). The GI50 (MOLT-4) was 268 nM (active), the GI50 (Malme-3M) was 21.5 nM (active) and the GI50 (NCI-H226) was 207 nM (active). The GI50 (NCI-H23) was 15.5 nM (active), the GI50 (NCI-H460) was 127 nM (active) and the GI50 (NCI-H522) was 148 nM (active). For the same compound, the GI50 (NCI/ADR-RES) was 178 nM (active), the GI50 (OVCAR-3) was 187 nM (active) and the GI50 (OVCAR-4) was 168 nM (active). The GI50 (OVCAR-5) was 186 nM (active), the GI50 (OVCAR-8) was 191 nM (active) and the GI50 (PC-3) was 289 nM (active). The GI50 (RPMI-8226) was 184 nM (active), the GI50 (RXF 393) was 172 nM (active) and the GI50 (SF-268) was 114 nM (active). For the same compound, the GI50 (SF-295) was 79.2 nM (active), the GI50 (SF-539) was 40.1 nM (active) and the GI50 (SK-MEL-28) was 47 nM (active). The GI50 (SK-MEL-2) was 41.5 nM (active), the GI50 (SK-MEL-5) was 16.4 nM (active) and the GI50 (SK-OV-3) was 1490 nM (inactive). For the same compound, the GI50 (SN12C) was 112 nM (active), the GI50 (SNB-19) was 136 nM (active) and the GI50 (SNB-75) was 90.2 nM (active). For the same compound, the GI50 (SR) was 80.3 nM (active), the GI50 (SW-620) was 45.3 nM (active) and the GI50 (T47D) was 329 nM (active). For the same compound, the GI50 (TK-10) was 213 nM (active), the GI50 (U-251) was 125 nM (active) and the GI50 (UACC-257) was 18.3 nM (active). For the same compound, the GI50 (UACC-62) was 51.9 nM (active) and the GI50 (UO-31) was 185 nM (active).
